The values below come from paper PMC8194517, “B^0AT1 Amino Acid Transporter Complexed With SARS-CoV-2 Receptor ACE2 Forms a Heterodimer Functional Unit: In Situ Conformation Using Radiation Inactivation Analysis” (Function, 2021).

For this assay, the system named is T1, B^0AT1 ([ACE2:B^0AT1] heterodimer functional unit).
T1 construct: gene SLC6A19; native, ileal apical brush border membrane vesicles, lyophilized and reconstituted; full-length; with Angiotensin-converting enzyme 2
Briefly: radiotracer uptake into brush border membrane vesicles, […] s initial rate. The class given is biochemical, Oryctolagus cuniculus. The note with it: labelled compound; Na+-dependent zero-trans influx, 100 mM NaSCN, pH 7.5, 22°C; apparent Km, major component after subtracting diffusion and a minor 'Other' component.

One may read the Km as the concentration of substrate that gives half-maximal velocity. As to `C[C@H](N)C(=O)O` [L-alanine], the Michaelis constant (Km) came out at 6.9 ± 0.8 mM.
